From patent US20130108573A1, “Bile Acid Recycling Inhibitors for Treatment of Hypercholemia and Cholestatic Liver Disease” (Lumena Pharmaceuticals, Inc., priority 2011, published 2013)
Marks after values point to notes of the source that are not given here.

Columns and labels:
[1] = tested on: Dog Serum Bile Acids; experiment: Time to onset of activity of LUM001 on postprandial serum bile acids in beagle dogs; type: in vivo; settings: for Serum Bile Acid, Mean: dogs n = 6, fed at 0 min, dosed at 60 min
Experimental: LUM001 was dissolved in water at concentrations that required the administration of 0.2 ml/kg of solution. Solutions were placed into gelatin capsules, Torpac Inc., size 13 Batch 594, East Hanover N.J., and administered orally.
Male beagle dogs were obtained from Covance Research Products, Cumberland Va. or Marshall Farms USA, Inc., North Rose N.Y. A total of 20 dogs, 1 to 5 years old, 6.8 to 15.6 kg body weight, were used in these experiments. The dogs were conditioned to a 12 hour light/dark cycle and maintained on a feeding restriction of 1 hour per day access to food (Richman Standard Certified Canine Diet #5007, PMI Nutrition, Inc., St Louis Mo.) from 7 to 8 AM. They were trained to eat a special meal promptly within 20 minutes when presented (1 can. 397 g, Evanger's 100% Beef for Dogs, Evanger's Dog and Cat Food Co., Inc., Wheeling Ill., mixed with 50 g of sharp cheddar cheese.).
SBA was measured by an enzymatic assay. SBA values are expressed as μg of total bile acids/ml of serum.
To estimate the details of this plateau, 6 dogs were given a test meal and blood samples for SBA measurement were collected at −30, 0, 30, 60, 65, 70, 80, 90, 120, 180, 240, 360, 480, 720, 1410 and 1440 minutes from the time of feeding. Any remaining food was removed 20 min after it was first presented to the dogs. To establish a method for extending the elevated plateau of SBA, 6 dogs were given the meal at 0 hr and an additional ½ size meal again 4 hr after their first meal. Blood samples were taken at 0, 1, 2, 3, 4, 4.5, 6, 7 and 8 hr. The curves for SBA level vs time obtained in these experiments were used as references for determining blood sampling times in experiments with LUM001. Wherever possible, experimental design permitting, in experiments with test compound, each dog served as its own simultaneous control, and the mean 1 hr SBA value served as the reference to which all other mean values were compared.
LUM001 was administered at 0, 0.01, 0.05, 0.2 and 1 mg/kg, p.o. to dogs, n=6, 1 hr after feeding the standard experimental meal. Blood samples for SBA measurement were taken at −30, 0, 30, 60, 65, 70, 80, 90, 120 and 180 minutes from the time of feeding. Each dog served as its own control, and mean SBA levels were compared to the mean SBA level at 60 minutes.

[2] = Pharmacokinetics of LUM001 in subjects under 18 years (study NB-00-02-014): systemic exposure; type: in vivo, human; settings: for Average serum drug exposure: day eight
Experimental: LUM001 has been administered to forty patients under the age of 18 years old. […] The drug was administered once-a-day (QD) in the morning for fourteen days. […] These doses are similar to those using to treat patients with cholestatic diseases.

[3] = tested on: Serum Bile Acid and Fecal Bile Acid; experiment: Phase 1 ascending multiple oral dose study of LUM001 in healthy adult subjects: serum and fecal bile acid analysis; type: in vivo, human; settings: ascending multiple oral doses, 28 days, vs placebo
Experimental: This Phase 1 study was a randomized, double-blind, placebo-controlled study of ascending multiple oral doses of LUM001 in healthy, adult subjects. This study was conducted at a single center. There were 13 LUM001 dosing panels: 10, 20, 60, 100, and 20 mg every morning (qAM) (2) (i.e., the regimen was tested a second time in the study), 5 mg every evening (qPM), 0.5, 1, 2.5, 5, 2.5 (2), 5 (2), and 0.5 to 5 mg qAM dose titration. Most of the dosing panels included subjects treated with matching placebo. Shown in the graphs are data from the 0.5 (n=16), 1.0 (n=8), 2.5 (n=8), 5.0 (n=8) and 10 (n=8) mg dosing groups. […]
SBA were analyzed as part of the routine clinical analysis of the serum samples collected at each time point.
Fecal samples were collected for all panels except the dose-titration panel, 2.5 (2) and 5 mg (2), on Days 9 through 14 and 23 through 28 (data shown in FIG. 4). Twenty-four hour FBA excretions were quantified by Pharmacia for Days 9 through 14 and 23 through 28. […] The weight of each 24-hour fecal collection was recorded on the CRFs. […]
An aliquot for each 24-hour fecal sample collected on Days 23 through 28 was combined, homogenized, and analyzed for bile acid species concentrations by ANAPHARM. The fecal bile acid species evaluated include chenodeoxycholic acid, cholic acid, deoxycholic acid, and lithocholic acid.

[4] = Pediatric multiple-dose study of LUM-001: tolerability; type: in vivo, human; settings: 2 weeks daily up to 5 mg q.d., 39 treated subjects aged 10-17
From the text: (39 treated subjects aged 10-17).

[5] = dogs, 1 mg/kg orally 1 hour after feeding

CCCCC1(CCCC)CS(=O)(=O)c2ccc(N(C)C)cc2[C@@H](c2ccc(OCc3ccc(C[N+]45CCN(CC4)CC5)cc3)cc2)[C@H]1O [LUM001]
Threshold dose for significant SBA lowering ([1]; dog SBA model, oral): 0.05 mg/kg
Serum Bile Acid, Mean ([1]; 0.01 mg/kg p.o., time 0 min): 1.4 µg/mL
Serum Bile Acid, Mean ([1]; 0.01 mg/kg p.o., time 30 min): 5.8 µg/mL
Serum Bile Acid, Mean ([1]; 0.01 mg/kg p.o., time 60 min): 14.6 µg/mL
Serum Bile Acid, Mean ([1]; 0.01 mg/kg p.o., time 65 min): 13.9 µg/mL
Serum Bile Acid, Mean ([1]; 0.01 mg/kg p.o., time 70 min): 14.1 µg/mL
Serum Bile Acid, Mean ([1]; 0.01 mg/kg p.o., time 80 min): 12.8 µg/mL
Serum Bile Acid, Mean ([1]; 0.01 mg/kg p.o., time 90 min): 11.0 µg/mL
Serum Bile Acid, Mean ([1]; 0.01 mg/kg p.o., time 120 min): 10.6 µg/mL
Serum Bile Acid, Mean ([1]; 0.01 mg/kg p.o., time 180 min): 11.0 µg/mL
Serum Bile Acid, Mean ([1]; 0.01 mg/kg p.o., time −30 min): 1.5 µg/mL
Serum Bile Acid, Mean ([1]; 0.05 mg/kg p.o., time 0 min): 2.1 µg/mL
Serum Bile Acid, Mean ([1]; 0.05 mg/kg p.o., time 30 min): 6.8 µg/mL
Serum Bile Acid, Mean ([1]; 0.05 mg/kg p.o., time 60 min): 10.4 µg/mL
Serum Bile Acid, Mean ([1]; 0.05 mg/kg p.o., time 65 min): 12.2 µg/mL
Serum Bile Acid, Mean ([1]; 0.05 mg/kg p.o., time 70 min): 12.0 µg/mL
Serum Bile Acid, Mean ([1]; 0.05 mg/kg p.o., time 80 min): 10.0 µg/mL
Serum Bile Acid, Mean ([1]; 0.05 mg/kg p.o., time 90 min): 8.8 µg/mL
Serum Bile Acid, Mean ([1]; 0.05 mg/kg p.o., time 120 min): 6.5* μg/ml
Serum Bile Acid, Mean ([1]; 0.05 mg/kg p.o., time 180 min): 6.5* μg/ml
Serum Bile Acid, Mean ([1]; 0.05 mg/kg p.o., time −30 min): 1.4 µg/mL
Serum Bile Acid, Mean ([1]; 0.2 mg/kg p.o., time 0 min): 1.9 µg/mL
Serum Bile Acid, Mean ([1]; 0.2 mg/kg p.o., time 30 min): 9.1 µg/mL
Serum Bile Acid, Mean ([1]; 0.2 mg/kg p.o., time 60 min): 19.1 µg/mL
Serum Bile Acid, Mean ([1]; 0.2 mg/kg p.o., time 65 min): 14.9 µg/mL
Serum Bile Acid, Mean ([1]; 0.2 mg/kg p.o., time 70 min): 16.7 µg/mL
Serum Bile Acid, Mean ([1]; 0.2 mg/kg p.o., time 80 min): 14.3 µg/mL
Serum Bile Acid, Mean ([1]; 0.2 mg/kg p.o., time 90 min): 9.8* μg/ml
Serum Bile Acid, Mean ([1]; 0.2 mg/kg p.o., time 120 min): 4.8* μg/ml
Serum Bile Acid, Mean ([1]; 0.2 mg/kg p.o., time 180 min): 4.0 µg/mL
Serum Bile Acid, Mean ([1]; 0.2 mg/kg p.o., time −30 min): 2.4 µg/mL
Serum Bile Acid, Mean ([1]; 1 mg/kg p.o., time 0 min): 2.6 µg/mL
Serum Bile Acid, Mean ([1]; 1 mg/kg p.o., time 30 min): 7.6 µg/mL
Serum Bile Acid, Mean ([1]; 1 mg/kg p.o., time 60 min): 13.8 µg/mL
Serum Bile Acid, Mean ([1]; 1 mg/kg p.o., time 65 min): 13.5 µg/mL
Serum Bile Acid, Mean ([1]; 1 mg/kg p.o., time 70 min): 15.4 µg/mL
Serum Bile Acid, Mean ([1]; 1 mg/kg p.o., time 80 min): 12.1 µg/mL
Serum Bile Acid, Mean ([1]; 1 mg/kg p.o., time 90 min): 7.4* μg/ml
Serum Bile Acid, Mean ([1]; 1 mg/kg p.o., time 120 min): 3.0* μg/ml
Serum Bile Acid, Mean ([1]; 1 mg/kg p.o., time 180 min): 2.6* μg/ml
Serum Bile Acid, Mean ([1]; 1 mg/kg p.o., time −30 min): 2.1 µg/mL
Time after dosing to significantly lowered serum bile acid levels ([1]; dogs, 0.2 mg/kg orally 1 hour after feeding): ≤ 30 min
Effect of increasing the dose above the ED50 level on onset time to significant SBA lowering [1, 5]: did not shorten the onset time
Time after dosing for which maximal SBA suppression was sustained [1, 5]: 2 h
Systemic exposure (absorption) of LUM001 ([2]; patients under the age of 18, once-a-day in the morning for fourteen days, measured on day eight): minimally absorbed
Average serum drug exposure ([2]; subject 0304, LUM001 1.0 mg QD (24.3 μg/kg)): 0.0 ng/mL
Average serum drug exposure ([2]; subject 0309, LUM001 1.0 mg QD (35.0 μg/kg)): 0.0 ng/mL
Fecal bile acids [3]: significant increase
Serum bile acids [3]: significant reduction
Tolerability [4]: well-tolerated
